According to patent US8198330B2, “Therapeutic or prophylactic agent for diabetes, obesity, dyslipidemia or metabolic syndrome comprising benzylamine derivative or pharmaceutically acceptable acid addition salt thereof” (Toray Industries, Inc., priority 2008, dated 2012):

Test system: anesthetized dog
Experiment: Effect on electrocardiogram of anesthetized dog
Type: in vivo
Conditions: for QTc: Fridericia
Procedure: A male beagle and a female beagle of 11 months of age were used in the test. A beagle was anesthetized by intravenous administration of thiopental sodium at 25 mg/kg, and fixed at the dorsal position under anesthesia by isoflurane inhalation with oxygen-nitrous oxide gas (1:1). Artificial respiration was carried out under the condition of 20 mL/kg and 15 times/minute. In measurement of the electrocardiogram, bipolar extremity leads (I, II and III) and augmented unipolar extremity leads (aVR, aVL and aVF) were recorded and QT interval determined by using an electrocardiogram analyzer for animals (α6000AX-D, Fukuda M-E Kogyo Co., Ltd.), as needle electrodes were placed on four extremities.
The QTc value was calculated according to the Fridericia's formula: QTc=QT/^3√{square root over ( )}(R−R). For observation of arrhythmia in electrocardiographic waveform during test, compression electrocardiogram was printed out from the small memory card by using a long-term electrocardiogram analyzer (HS1000 system, Fukuda M-E Kogyo Co., Ltd.). The samples of the compound of Example 1 were prepared by dissolving the compound in physiological saline at concentrations of 12 mg/mL, 4 mg/mL and 1.2 mg/mL. After confirmation of stabilization of the electrocardiogram, the sample was administered through a needle (22G) previously placed in the side forearm subcutaneous vein, by using an automatic injector (Harvard digital infusion pump MODEL-22, HARVARD […]) over a period of 10 minutes.
First, vehicle (physiological saline) was administered in an amount of 0.5 mL/kg and then, after 35 minutes, 1.2 mg/mL physiological saline solution of the compound of Example 1 was administered in an amount of 0.5 mL/kg. Additionally, 4 mg/mL or 12 mg/mL physiological saline solution of the compound of Example 1 was administered in an amount of 0.5 mL/kg at an interval of 65 minutes after administration. The QT interval and the QTc value were measured, in each administration above, 5 minutes before administration, immediately before start of administration, as well as 5, 10, 15 and 30 minutes after start of administration. Thus, the measured value 30 or 60 minutes after start of previous administration corresponds to the value 5 minutes before start of administration for the following application.

[1] = Individual 1 (male), 0.6 mg/kg/10 min i.v., 0 min (immediately before start of administration)
[2] = Individual 1 (male), 0.6 mg/kg/10 min i.v., 5 min after start of administration
[3] = Individual 1 (male), 0.6 mg/kg/10 min i.v., 10 min after start of administration
[4] = Individual 1 (male), 0.6 mg/kg/10 min i.v., 15 min after start of administration
[5] = Individual 1 (male), 0.6 mg/kg/10 min i.v., 30 min after start of administration
[6] = Individual 1 (male), 0.6 mg/kg/10 min i.v., 45 min after start of administration
[7] = Individual 1 (male), 0.6 mg/kg/10 min i.v., 60 min after start of administration
[8] = Individual 1 (male), 2 mg/kg/10 min i.v., 0 min (immediately before start of administration)
[9] = Individual 1 (male), 2 mg/kg/10 min i.v., 5 min after start of administration
[10] = Individual 1 (male), 2 mg/kg/10 min i.v., 10 min after start of administration
[11] = Individual 1 (male), 2 mg/kg/10 min i.v., 15 min after start of administration
[12] = Individual 1 (male), 2 mg/kg/10 min i.v., 30 min after start of administration
[13] = Individual 1 (male), 2 mg/kg/10 min i.v., 45 min after start of administration
[14] = Individual 1 (male), 2 mg/kg/10 min i.v., 60 min after start of administration
[15] = Individual 1 (male), 6 mg/kg/10 min i.v., 0 min (immediately before start of administration)
[16] = Individual 1 (male), 6 mg/kg/10 min i.v., 5 min after start of administration
[17] = Individual 1 (male), 6 mg/kg/10 min i.v., 10 min after start of administration
[18] = Individual 1 (male), 6 mg/kg/10 min i.v., 15 min after start of administration
[19] = Individual 1 (male), 6 mg/kg/10 min i.v., 30 min after start of administration
[20] = Individual 1 (male), 6 mg/kg/10 min i.v., 45 min after start of administration
[21] = Individual 1 (male), 6 mg/kg/10 min i.v., 60 min after start of administration
[22] = Individual 2 (female), 0.6 mg/kg/10 min i.v., 0 min (immediately before start of administration)
[23] = Individual 2 (female), 0.6 mg/kg/10 min i.v., 5 min after start of administration
[24] = Individual 2 (female), 0.6 mg/kg/10 min i.v., 10 min after start of administration
[25] = Individual 2 (female), 0.6 mg/kg/10 min i.v., 15 min after start of administration
[26] = Individual 2 (female), 0.6 mg/kg/10 min i.v., 30 min after start of administration
[27] = Individual 2 (female), 0.6 mg/kg/10 min i.v., 45 min after start of administration
[28] = Individual 2 (female), 0.6 mg/kg/10 min i.v., 60 min after start of administration
[29] = Individual 2 (female), 2 mg/kg/10 min i.v., 0 min (immediately before start of administration)
[30] = Individual 2 (female), 2 mg/kg/10 min i.v., 5 min after start of administration
[31] = Individual 2 (female), 2 mg/kg/10 min i.v., 10 min after start of administration
[32] = Individual 2 (female), 2 mg/kg/10 min i.v., 15 min after start of administration
[33] = Individual 2 (female), 2 mg/kg/10 min i.v., 30 min after start of administration
[34] = Individual 2 (female), 2 mg/kg/10 min i.v., 45 min after start of administration
[35] = Individual 2 (female), 2 mg/kg/10 min i.v., 60 min after start of administration
[36] = Individual 2 (female), 6 mg/kg/10 min i.v., 0 min (immediately before start of administration)
[37] = Individual 2 (female), 6 mg/kg/10 min i.v., 5 min after start of administration
[38] = Individual 2 (female), 6 mg/kg/10 min i.v., 10 min after start of administration
[39] = Individual 2 (female), 6 mg/kg/10 min i.v., 15 min after start of administration
[40] = Individual 2 (female), 6 mg/kg/10 min i.v., 30 min after start of administration
[41] = Individual 2 (female), 6 mg/kg/10 min i.v., 45 min after start of administration
[42] = Individual 2 (female), 6 mg/kg/10 min i.v., 60 min after start of administration
[43] = anesthetized beagle, i.v. 0.6, 2 and 6 mg/kg/10 min

COc1cc(CN[C@@H](C)[C@H](O)c2ccc(O)c(NS(C)(=O)=O)c2)cc(OC)c1 [Example 1, N-(5-((1R,2S)-2-(3,5-Dimethoxybenzylamino)-1-hydroxypropyl)-2-hydroxyphenyl)methanesulfonamide]
QT interval [1]: 241 ms | QTc [1]: 303 ms | QT interval [2]: 228 ms | QTc [2]: 299 ms | QT interval [3]: 210 ms | QTc [3]: 287 ms | QT interval [4]: 205 ms | QTc [4]: 280 ms | QT interval [5]: 213 ms | QTc [5]: 290 ms | QT interval [6]: 220 ms | QTc [6]: 296 ms | QT interval [7]: 221 ms | QTc [7]: 294 ms | QT interval [8]: 218 ms | QTc [8]: 293 ms | QT interval [9]: 203 ms | QTc [9]: 283 ms | QT interval [10]: 203 ms | QTc [10]: 283 ms | QT interval [11]: 213 ms | QTc [11]: 294 ms | QT interval [12]: 218 ms | QTc [12]: 297 ms | QT interval [13]: 221 ms | QTc [13]: 299 ms | QT interval [14]: 225 ms | QTc [14]: 304 ms | QT interval [15]: 220 ms | QTc [15]: 296 ms | QT interval [16]: 210 ms | QTc [16]: 292 ms | QT interval [17]: 211 ms | QTc [17]: 294 ms | QT interval [18]: 210 ms | QTc [18]: 291 ms | QT interval [19]: 211 ms | QTc [19]: 291 ms | QT interval [20]: 235 ms | QTc [20]: 320 ms | QT interval [21]: 226 ms | QTc [21]: 305 ms | QT interval [22]: 240 ms | QTc [22]: 293 ms | QT interval [23]: 243 ms | QTc [23]: 315 ms | QT interval [24]: 236 ms | QTc [24]: 310 ms | QT interval [25]: 223 ms | QTc [25]: 296 ms | QT interval [26]: 218 ms | QTc [26]: 297 ms | QT interval [27]: 211 ms | QTc [27]: 288 ms | QT interval [28]: 213 ms | QTc [28]: 292 ms | QT interval [29]: 215 ms | QTc [29]: 293 ms | QT interval [30]: 210 ms | QTc [30]: 292 ms | QT interval [31]: 210 ms | QTc [31]: 289 ms | QT interval [32]: 210 ms | QTc [32]: 288 ms | QT interval [33]: 225 ms | QTc [33]: 303 ms | QT interval [34]: 220 ms | QTc [34]: 298 ms | QT interval [35]: 221 ms | QTc [35]: 299 ms | QT interval [36]: 220 ms | QTc [36]: 296 ms | QT interval [37]: 215 ms | QTc [37]: 293 ms | QT interval [38]: 211 ms | QTc [38]: 289 ms | QT interval [39]: 215 ms | QTc [39]: 292 ms | QT interval [40]: 213 ms | QTc [40]: 289 ms | QT interval [41]: 226 ms | QTc [41]: 303 ms | QT interval [42]: 220 ms | QTc [42]: 294 ms | arrhythmia in electrocardiographic waveform [43]: no arrhythmia observed | prolongation of the QT interval [43]: did not cause prolongation of the QT interval
